Assay results from patent US20230416224A1, “PROCESSES FOR PREPARING ARIMOCLOMOL CITRATE AND INTERMEDIATES THEREOF” (ZEVRA DENMARK A/S, priority 2020, published 2023).
Blank lines part the entries; values can stand above or below the compound they belong to.

What was measured:
[1] = parameters: species or system dogs; details: dog, in vivo
[2] = parameters: species or system human; details: in vivo
Experimental: The PK parameters of arimoclomol after single dose and multiple dose administrations of arimoclomol were studied. After single- and multiple-dose oral administration of arimoclomol, the overall median tmax was 0.25 to 3.00 hours.

[3] = assay type: in vivo, human
From the text: The stability permits that the permeability of arimoclomol is high based on urinary recovery in human mass balance trial.

[4] = Stability of ORZY-04 on drying; assay type: physicochemical; details: 168 h of drying at 45° C. in vacuum
Experimental: A citric acid solution was prepared by charging citric acid (15.01 g, […]) and MeOH (100 mL) in a separate container and stirring for 5 min. at 20° C. The citric acid solution was then charged to the container containing the reaction solution, and the mixture was cooled to 0° C. and stirred for at least 12 h at 0° C. ORZY-04 was then isolated by filtration of the obtained suspension, and washed with MeOH (40 mL). Finally, the solids were dried at 45° C. in vacuum.

[5] = Particle size distribution of ORZY-05 by Malvern Mastersizer 3000; assay type: physicochemical; details: ORZY-05 particles, Malvern Mastersizer 3000, volume distribution
Experimental: Further batches of ORZY-05 were prepared essentially as in Example 7 and the ORZY-05 particles were examined using Malvern Mastersizer 3000 as described in Example 11.
Malvern Mastersizer 3000: Particle size distribution of Arimoclomol citrate (ORZY-05) was determined by light scattering using a Malvern Mastersizer 3000 particle size analyzer (Malvern Instruments Ltd, Grovewood Road, Malvern, Worcestershire WR14 1XZ, United Kingdom) with a Hydro MV wet-dispersion unit attached. 2-Propanol with 1.8 g/L SPAN-85 additive was used as a dispersion medium (“dispersant”) and added to the dispersion unit. Prior to sample addition, the background counts of the system were determined by circulating the dispersant through the measurement cell under measurement conditions (2500 rpm stirrer speed). Samples for analysis were prepared by adding a suitable amount of Arimoclomol citrate to a 10 mL vial and pre-dispersing it with dispersant under light agitation for a few seconds. The pre-dispersed sample was then pipetted into the Hydro MV dispersion unit filled with dispersant to meet a laser obscuration range of 10-15%. A single-use PE pipette was used for this and representative sampling from the 10 mL vial was ensured by continuous agitation. […] Volume distributions were obtained and the D10, D50 and D90 were calculated from these distributions and reported. For each sample, a single sample preparation was analyzed using red light measurement only. Upon measurement completion, the sample cell was emptied and cleaned.

[6] = Particle size distribution of ORZY-05 by static automated imaging (Morphologi 4); assay type: physicochemical; details: ORZY-05 particles
Experimental: The materials and methods were essentially as in Example 7. In the present example, the cooling time of the cooling step of from 30° C. to 0° C. subsequent to addition of acetone was varied and its influence on the particle size of ORZY-05 was determined. The cooling time is a measure of how long it takes to reach 0° C. from 30° C. The particle size distribution (PSD) data shown in Table 3 were acquired using static automated imaging (Morphology 4).
Morphologi 4: The Particle size distribution of Arimoclomol citrate (ORZY-05) was also measured using a Malvern Morphologi 4 equipment.
Wet measurement was used for the needle shaped particles. […] Measurements were made using a thin path wet cell (75*75 mm). Samples were prepared by adding 20 mL of dispersant to 10 mg of API, followed by 30 s of stirring and 2 min of sonication in order to break the agglomerates. A microscope magnifier of X10 or X20 was used, and segmentation sharp edge and/or thresholding was used to improve the focus microscope focus.

absolute bioavailability [1]: 75% | PK parameters (Cmax and AUC0-8) versus dose [2]: increase in proportion to the dose | absorption ([2]; po): rapid and extensive | drug-related material recovered in faeces ([3]; in vivo): 12% | drug-related material recovered in the urine ([3]; in vivo): 77.5% | permeability ([3]; not told): high
SMILES: [O-][n+]1cccc(C(Cl)=NOC[C@H](O)CN2CCCCC2)c1 [arimoclomol, N-{[(2R)-2-hydroxy-3-piperidin-1-ylpropyl]oxy}pyridine-3-carboximidoyl chloride 1-oxide]

SMILES: [O-][n+]1cccc(/C(Cl)=N/OC[C@H](O)CN2CCCCC2)c1 [ORZY-04]
stability on drying [4]: stable

SMILES: O=C(O)CC(O)(CC(=O)O)C(=O)O.[O-][n+]1cccc(/C(Cl)=N/OC[C@H](O)CN2CCCCC2)c1 [compound 1002, arimoclomol citrate]
D10 [5]: 14.00 μm | D50 [5]: 53.00 μm | D90 [5]: 118.00 μm | Number CE Diameter D10 [6]: 2.45 μm | Number CE Diameter D50 [6]: 5.61 μm | Number CE Diameter D90 [6]: 15.01 μm | Number CE Diameter Mean [6]: 7.71 μm | Number Length D10 [6]: 3.46 μm | Number Length D50 [6]: 7.37 μm | Number Length D90 [6]: 22.17 μm | Volume CE Diameter D10 [6]: 12.39 μm | Volume CE Diameter D50 [6]: 32.12 μm | Volume CE Diameter D90 [6]: 73.60 μm | Volume CE diameter D[3,2] [6]: 24.24 μm | Volume CE diameter D[4,3] [6]: 39.38 μm
